Reference: ChEMBL document CHEMBL1201862, “PubChem BioAssay data set” (2004)
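48-hour exposure; five concentrations; linearly interpolated endpoints. The concentration for 50% growth inhibition is given as GI50.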 Active and inactive are the calls of the source. No stated cut-off is given here; in the data, active = GI50 up to about 1.1 µM and inactive = higher. *1 amine or outer side, *2 acyl side, *3 side chain or, on linkers, in order; H or OH if unused. Where a SMILES comes first, the peptide text is derived from it. The star is where a group is joined. γGlu = O=C(O)[CH](CCC(=O)[*:2])N[*:1]; NHOH = ON*

Legend:
Assay in all cases: growth of human tumour cells (NCI), 48 h
IGROV-1 = test system: IGROV-1
HL-60 = test system: HL-60
HCT-116 = test system: HCT-116
U-251 = test system: U-251
DMS-114 = test system: DMS-114
SW-620 = test system: SW-620
CCRF-CEM = test system: CCRF-CEM
SF-295 = test system: SF-295
SN12C = test system: SN12C
ACHN = test system: ACHN
M14 = test system: M14
HOP-62 = test system: HOP-62
CAKI-1 = test system: CAKI-1
NCI-H522 = test system: NCI-H522
RXF 393 = test system: RXF 393
MOLT-4 = test system: MOLT-4
EKVX = test system: EKVX
DU-145 = test system: DU-145
NCI-H226 = test system: NCI-H226
MDA-N = test system: MDA-N

Compound: O=C(NC(Cc1ccccc1)C(=O)CCl)OCc1ccccc1 (stereo not drawn)
- GI50 (IGROV-1): 13.2 µM (inactive)
- GI50 (HL-60): 3.07 µM (inactive)
- GI50 (HCT-116): 13.6 µM (inactive)
- GI50 (U-251): 10.8 µM (inactive)
- GI50 (DMS-114): 1.22 µM (inactive)
- GI50 (SW-620): 4.26 µM (inactive)
- GI50 (CCRF-CEM): 2.74 µM (inactive)
- GI50 (SF-295): 14.1 µM (inactive)
- GI50 (SN12C): 4.91 µM (inactive)
- GI50 (ACHN): 10.1 µM (inactive)
- GI50 (M14): 10.6 µM (inactive)
- GI50 (HOP-62): 15.3 µM (inactive)
- GI50 (CAKI-1): 5.15 µM (inactive)
- GI50 (NCI-H522): 1.67 µM (inactive)

Compound: CCOc1cc(/C=C/C=C/c2ccc(N(C)C)cc2)[s+]c2ccccc12
- GI50 (IGROV-1): 21.6 µM (inactive)
- GI50 (HL-60): 0.857 µM (active)
- GI50 (HCT-116): 21.7 µM (inactive)
- GI50 (U-251): 5.36 µM (inactive)
- GI50 (RXF 393): 24.2 µM (inactive)
- GI50 (DMS-114): 5.27 µM (inactive)
- GI50 (SW-620): 30.7 µM (inactive)
- GI50 (MOLT-4): 6.85 µM (inactive)
- GI50 (CCRF-CEM): 3.38 µM (inactive)
- GI50 (SF-295): 33.8 µM (inactive)
- GI50 (SN12C): 35.8 µM (inactive)
- GI50 (ACHN): 30.5 µM (inactive)
- GI50 (EKVX): 34.5 µM (inactive)
- GI50 (M14): 38.7 µM (inactive)
- GI50 (HOP-62): 7.71 µM (inactive)
- GI50 (CAKI-1): 23.7 µM (inactive)

Compound: NC(CCC(=O)NC(CCC(=O)NO)C(=O)NCC(=O)O)C(=O)O (stereo not drawn) (γGlu-Glu(NHOH)-Gly-OH; configuration not given here)
- GI50 (IGROV-1): > 100 µM (inactive)
- GI50 (HL-60): > 100 µM (inactive)
- GI50 (DU-145): > 100 µM (inactive)
- GI50 (HCT-116): > 100 µM (inactive)
- GI50 (NCI-H226): > 100 µM (inactive)
- GI50 (U-251): > 100 µM (inactive)
- GI50 (RXF 393): > 100 µM (inactive)
- GI50 (SW-620): > 100 µM (inactive)
- GI50 (MOLT-4): > 100 µM (inactive)
- GI50 (CCRF-CEM): > 100 µM (inactive)
- GI50 (SF-295): > 100 µM (inactive)
- GI50 (SN12C): > 100 µM (inactive)
- GI50 (ACHN): > 100 µM (inactive)
- GI50 (EKVX): > 100 µM (inactive)
- GI50 (M14): > 100 µM (inactive)
- GI50 (HOP-62): > 100 µM (inactive)
- GI50 (CAKI-1): > 100 µM (inactive)
- GI50 (NCI-H522): > 100 µM (inactive)
- GI50 (MDA-N): > 100 µM (inactive)

Compound: CN(C)/C=N/S(=O)(=O)c1nn2c(C=O)c(-c3cc4ccccc4oc3=O)nc2s1
- GI50 (IGROV-1): 9.4 µM (inactive)
- GI50 (HL-60): 1.61 µM (inactive)
- GI50 (DU-145): 5.56 µM (inactive)
- GI50 (HCT-116): 1.79 µM (inactive)
- GI50 (NCI-H226): 15.2 µM (inactive)
- GI50 (U-251): 8.09 µM (inactive)
- GI50 (RXF 393): 2.58 µM (inactive)
- GI50 (SW-620): 2.18 µM (inactive)
- GI50 (MOLT-4): 1.89 µM (inactive)
- GI50 (CCRF-CEM): 0.276 µM (active)
- GI50 (SF-295): > 44.1 µM (inactive)
- GI50 (SN12C): 5.92 µM (inactive)
- GI50 (ACHN): 1.77 µM (inactive)
- GI50 (EKVX): 10.4 µM (inactive)
- GI50 (M14): 7.83 µM (inactive)
- GI50 (HOP-62): > 30.2 µM (inactive)
- GI50 (CAKI-1): 1.75 µM (inactive)
- GI50 (NCI-H522): 1.16 µM (inactive)
- GI50 (MDA-N): 4.46 µM (inactive)

Compound: N#CC(C#N)=Cn1c(=S)[nH]c2ccccc21
- GI50 (IGROV-1): > 100 µM (inactive)
- GI50 (HL-60): > 100 µM (inactive)
- GI50 (DU-145): > 100 µM (inactive)
- GI50 (HCT-116): > 100 µM (inactive)
- GI50 (NCI-H226): > 100 µM (inactive)
- GI50 (U-251): > 100 µM (inactive)
- GI50 (RXF 393): > 100 µM (inactive)
- GI50 (SW-620): > 100 µM (inactive)
- GI50 (MOLT-4): > 100 µM (inactive)
- GI50 (CCRF-CEM): > 100 µM (inactive)
- GI50 (SF-295): > 100 µM (inactive)
- GI50 (SN12C): > 100 µM (inactive)
- GI50 (ACHN): > 100 µM (inactive)
- GI50 (EKVX): 78.3 µM (inactive)
- GI50 (M14): > 100 µM (inactive)
- GI50 (HOP-62): > 100 µM (inactive)
- GI50 (CAKI-1): > 100 µM (inactive)
- GI50 (NCI-H522): > 100 µM (inactive)
- GI50 (MDA-N): > 100 µM (inactive)

Compound: Cc1csc(-c2cn(C)c3c2C(=O)C(=N)C=C3O)n1
- GI50 (IGROV-1): 2.31 µM (inactive)
- GI50 (HL-60): 1.58 µM (inactive)
- GI50 (DU-145): 4.12 µM (inactive)
- GI50 (HCT-116): 8.3 µM (inactive)
- GI50 (NCI-H226): 8.39 µM (inactive)
- GI50 (U-251): 37.1 µM (inactive)
- GI50 (RXF 393): 54.1 µM (inactive)
- GI50 (SW-620): 9.73 µM (inactive)
- GI50 (MOLT-4): 3.18 µM (inactive)
- GI50 (CCRF-CEM): 5.31 µM (inactive)
- GI50 (SF-295): 2.37 µM (inactive)
- GI50 (SN12C): 39.1 µM (inactive)
- GI50 (ACHN): 3.71 µM (inactive)
- GI50 (EKVX): 3.37 µM (inactive)
- GI50 (M14): 3.74 µM (inactive)
- GI50 (HOP-62): 6.89 µM (inactive)
- GI50 (CAKI-1): 3.68 µM (inactive)
- GI50 (NCI-H522): 13.6 µM (inactive)
- GI50 (MDA-N): 14.1 µM (inactive)

Compound: CCOC(=O)NC(Nc1ccc(C(=O)O)cc1)(C(F)(F)F)C(F)(F)F
- GI50 (IGROV-1): > 100 µM (inactive)
- GI50 (HL-60): > 100 µM (inactive)
- GI50 (DU-145): > 100 µM (inactive)
- GI50 (HCT-116): > 100 µM (inactive)
- GI50 (NCI-H226): > 100 µM (inactive)
- GI50 (U-251): > 100 µM (inactive)
- GI50 (RXF 393): 60.8 µM (inactive)
- GI50 (SW-620): > 100 µM (inactive)
- GI50 (MOLT-4): > 100 µM (inactive)
- GI50 (CCRF-CEM): > 100 µM (inactive)
- GI50 (SF-295): > 100 µM (inactive)
- GI50 (SN12C): > 100 µM (inactive)
- GI50 (ACHN): > 100 µM (inactive)
- GI50 (EKVX): > 100 µM (inactive)
- GI50 (M14): > 100 µM (inactive)
- GI50 (HOP-62): > 100 µM (inactive)
- GI50 (CAKI-1): > 100 µM (inactive)
- GI50 (NCI-H522): > 100 µM (inactive)
- GI50 (MDA-N): > 100 µM (inactive)

Compound: CN1CN(C(=O)N2CN(C)C(=O)N(C)C2)CN(C)C1=O
- GI50 (IGROV-1): > 100 µM (inactive)
- GI50 (HL-60): > 100 µM (inactive)
- GI50 (HCT-116): > 100 µM (inactive)
- GI50 (NCI-H226): > 100 µM (inactive)
- GI50 (DMS-114): > 100 µM (inactive)
- GI50 (SW-620): > 100 µM (inactive)
- GI50 (MOLT-4): > 100 µM (inactive)
- GI50 (CCRF-CEM): > 100 µM (inactive)
- GI50 (SF-295): > 100 µM (inactive)
- GI50 (SN12C): > 100 µM (inactive)
- GI50 (ACHN): > 100 µM (inactive)
- GI50 (EKVX): > 100 µM (inactive)
- GI50 (M14): > 100 µM (inactive)
- GI50 (HOP-62): > 100 µM (inactive)
- GI50 (CAKI-1): > 100 µM (inactive)
- GI50 (NCI-H522): > 100 µM (inactive)

Compound: C[Si](C)(C)C#CCOC=C1CC1
- GI50 (IGROV-1): 70.8 µM (inactive)
- GI50 (HL-60): 35.2 µM (inactive)
- GI50 (DU-145): > 100 µM (inactive)
- GI50 (HCT-116): > 100 µM (inactive)
- GI50 (NCI-H226): > 100 µM (inactive)
- GI50 (U-251): > 100 µM (inactive)
- GI50 (RXF 393): 3.45 µM (inactive)
- GI50 (SW-620): > 100 µM (inactive)
- GI50 (MOLT-4): > 100 µM (inactive)
- GI50 (CCRF-CEM): 34.4 µM (inactive)
- GI50 (SF-295): > 100 µM (inactive)
- GI50 (SN12C): > 100 µM (inactive)
- GI50 (ACHN): > 100 µM (inactive)
- GI50 (EKVX): > 100 µM (inactive)
- GI50 (M14): > 100 µM (inactive)
- GI50 (HOP-62): > 100 µM (inactive)
- GI50 (CAKI-1): > 100 µM (inactive)
- GI50 (NCI-H522): > 100 µM (inactive)
- GI50 (MDA-N): > 100 µM (inactive)

Compound: Cc1nnc(N)s/c1=N/O
- GI50 (IGROV-1): > 100 µM (inactive)
- GI50 (HL-60): > 100 µM (inactive)
- GI50 (DU-145): > 100 µM (inactive)
- GI50 (HCT-116): > 100 µM (inactive)
- GI50 (NCI-H226): > 100 µM (inactive)
- GI50 (U-251): > 100 µM (inactive)
- GI50 (RXF 393): > 100 µM (inactive)
- GI50 (SW-620): > 100 µM (inactive)
- GI50 (MOLT-4): > 100 µM (inactive)
- GI50 (CCRF-CEM): > 100 µM (inactive)
- GI50 (SF-295): > 100 µM (inactive)
- GI50 (SN12C): > 100 µM (inactive)
- GI50 (ACHN): > 100 µM (inactive)
- GI50 (EKVX): > 100 µM (inactive)
- GI50 (M14): > 100 µM (inactive)
- GI50 (HOP-62): > 100 µM (inactive)
- GI50 (CAKI-1): > 100 µM (inactive)
- GI50 (NCI-H522): > 100 µM (inactive)
- GI50 (MDA-N): > 100 µM (inactive)

Compound: COc1ccc(C(=O)CCN(C)C)c2ccccc12
- GI50 (IGROV-1): 19.4 µM (inactive)
- GI50 (HL-60): 15.6 µM (inactive)
- GI50 (DU-145): 28.2 µM (inactive)
- GI50 (HCT-116): 21.8 µM (inactive)
- GI50 (NCI-H226): > 100 µM (inactive)
- GI50 (U-251): 18.2 µM (inactive)
- GI50 (RXF 393): 21.3 µM (inactive)
- GI50 (SW-620): 18 µM (inactive)
- GI50 (MOLT-4): 17.9 µM (inactive)
- GI50 (CCRF-CEM): 2.79 µM (inactive)
- GI50 (SF-295): > 100 µM (inactive)
- GI50 (SN12C): 21.5 µM (inactive)
- GI50 (ACHN): 18.3 µM (inactive)
- GI50 (EKVX): 24.7 µM (inactive)
- GI50 (M14): 34.3 µM (inactive)
- GI50 (HOP-62): 24.1 µM (inactive)
- GI50 (CAKI-1): 6.78 µM (inactive)
- GI50 (NCI-H522): 5.21 µM (inactive)
- GI50 (MDA-N): 21.1 µM (inactive)
